Source: patent publication US20170252278A1, “INHIBITION OF MATURATION OF DENTAL BIOFILM AND CARIOGENIC PROPERTIES” (KONINKLIJKE PHILIPS N.V., priority 2014, published 2017)

Tests used:
Assay type in all cases: cell-based
[1] = tested on: in vitro oral plaque biofilms; test: In vitro oral plaque biofilm formation in the Amsterdam Active Attachment Model, CFU determination; conditions: for effect on in vitro oral plaque biofilm formation: 10 μM, difference less than one log, not considered biologically relevant
Description: Stimulated saliva, used as inoculum, was collected on ice from ten donors. Saliva was donated 24 h after last brushing. The saliva was diluted 2-fold with 60% sterile glycerol, aliquoted and stored at −80° C. Before use, a pooled sample was prepared by mixing 200 μl of thawed saliva of each donor and vortexing for 30 seconds. In vitro oral plaque biofilms were inoculated 1:50 with pooled saliva.
In vitro oral plaque biofilms were grown in the Amsterdam Active Attachment Model (AAA-model, Exterkate et al. (2010)), assembled with glass coverslips (diameter 12 mm; Menzel, Braunschweig, Germany). The model was inoculated for 8 h with pooled saliva in buffered semi-defined McBain medium (2.5 g/l mucin (Sigma, St Louis, Mo.), 2.0 g/l Bacto peptone (Difco, Detroit, Mich.), 2.0 g/l Trypticase peptone (BBL, Cockeysville, Md.), 1.0 g/l yeast extract (BD Diagnostic Systems, Sparks, Md.), 0.35 g/l NaCl, 0.2 g/l KCl, 0.2 g/l CaCl2, 1 mg/l hemin (Sigma, St. Louis, Mo., USA), and 2 mg/l vitamin K1 (McBain et al. (2005)), with 50 mmol/1 PIPES at pH 7.0), with 0.2% sucrose.
In vitro oral plaque biofilms were grown in the AAA-model for 48-96 h in the presence of the compounds tested. The model was inoculated with saliva and incubated anaerobically at 37° C. for 8 hours to allow microbes to attach to the glass coverslips. After 8 hours of attachment, the inoculation medium was refreshed and in vitro oral plaque biofilms were grown for 16 hours. This refreshment routine was repeated daily until the day of harvesting.
In vitro oral plaque biofilms were harvested by transferring the glass coverslips into 2 ml phosphate buffered saline (PBS). The biofilms were dispersed using a Vibracell VCX130 sonicator with a maximum of 130 Watts and 20 kHz (Sonics & Materials, Newtown, USA). Bio films were sonicated on ice for 1 minute with a pulse rate of 50% and pulses of 1 second. Vibration amplitude was set to 40%.
To estimate the amount of in vitro oral plaque biofilm formation, total anaerobic colony forming units were determined. Briefly, serial dilutions of the dispersed bio films were made and plated on tryptic soy agar blood plates. Plates were subsequently incubated anaerobically for 96 h at 37° C. and colony forming units were determined by counting the number of colonies for each dilution.

[2] = tested on: in vitro oral plaque biofilms; test: Microbial composition of biofilms by 16S rDNA sequencing; conditions: for shift in composition (Streptococcus down, Veillonella and Actinobacillus up) versus control: 10 μM; for Actinobacillus, share of biofilm composition / Actinomyces, share of biofilm composition / Campylobacter, share of biofilm composition / Fusobacterium, share of biofilm composition / Granulicatella, share of biofilm composition / Haemophilus, share of biofilm composition / Megasphaera, share of biofilm composition / Neisseria, share of biofilm composition / Other taxa, share of biofilm composition / Porphyromonas, share of biofilm composition / Prevotella, share of biofilm composition / Rothia, share of biofilm composition / Solobacterium, share of biofilm composition / Streptococcus, share of biofilm composition / Unclass. Pasteurellaceae, share of biofilm composition / Veillonella, share of biofilm composition: 3-Oxo-N 100 μM, furanones 10 μM
Description: DNA was isolated using phenol bead-beating followed by Agowa isolation, following the manufacturers instructions (LGC Genomics, Mag mini kit). Briefly, cells were mechanically disrupted four times at 1200 rpm for two minutes in addition of Tris-saturated Phenol, pH8, 0.1 mm zirconium beads and Mag lysis buffer. The DNA-containing phase was mixed with binding buffer and magnetic beads. DNA concentration was estimated by determining the absorbance at 260 nm using the nanodrop (Isogen, ND-1000).
PCR was performed in a final volume of 25 μl containing 1 μl of each primer ([…]), 1 μl dNTP (10 mM), 2.5 μl 10× DreamTaq Buffer including MgCl2 (Thermo Scientific), 0.2 μl DreamTaq DNA Polymerase (5 u/μ1, Thermo Scientific) and 50 ng of DNA. Initial denaturation was performed at 94° C. for 4 min, followed by 35 cycles of denaturation at 94° C. for 30 s, 54° C. annealing for 1 min, 72° C. for 1 min primer extension and a final extension at 72° C. for 5 min. Product formation was confirmed by electrophoresis of 5 μl on a 1% (w/v) agarose gel (Sphearo Q, Leiden, The Netherlands) stained with ethidium bromide.
These samples were analyzed by 16S rDNA Illumina sequencing at TNO Zeist (Netherlands).
Table 3. Microbial composition of biofilms grown for 48 (Table 3A) or 96 h (Table 3B) in the presence of different QS inhibitors. Composition was determined by 16S rDNA sequencing. The composition of the original inoculum used for all biofilms was also determined. “Unclass.” means: unclassified.

[3] = tested on: in vitro oral plaque biofilms; test: Lactic acid production assay of in vitro oral plaque biofilms; conditions: for reduction of lactate production / lactic acid production after 96 h of growth: 10 μM; for total lactic acid production per biofilm (FIG. 2): 100 μM, biofilms grown 48 h, 3 h in BPW with 0.2% sucrose
Description: All compounds tested of Table 1 were obtained from Sigma Aldrich. All compounds of Table 2, except 3-oxo-N(2oxocyclohexyl)dodecanamide, were kindly provided by M. Meijler, University of the Negev, Israel. The compounds were dissolved in DMSO and stored at −20 C. The compounds were continuously present at the indicated concentrations during biofilm growth, but not during further phenotypic analysis, i.e. lactate production.
To estimate the cariogenic phenotype, lactic acid production of the in vitro oral plaque biofilms was determined prior to harvesting (Exerkate et al 2010). In short, the biofilms on coverslips were placed in a 24-well plate containing 1.5 ml of BPW with 0.2% sucrose. Lactic acid formation was allowed for 3 hr at 37° C. under anaerobic conditions. The total amount of lactic acid produced in this period was analyzed using a colorimetric assay described previously (van Loveren et al. (2000)) and expressed as mM lactic acid, and as μM lactic acid per 1×10^6 CFU.
Biofilms were grown for 48 h in buffered McBain medium supplemented with 0.2% sucrose in the presence of 100 μM of one of the compounds. Medium was refreshed twice every day. […]

Row | Compound | effect on in vitro oral plaque biofilm formation [1] | shift in composition (Streptococcus down, Veillonella and Actinobacillus up) versus control ([2]; 48 h) | Actinobacillus, share of biofilm composition ([2]; 48 h) [%] | Actinomyces, share of biofilm composition ([2]; 48 h) [%] | Campylobacter, share of biofilm composition ([2]; 48 h) [%] | Fusobacterium, share of biofilm composition ([2]; 48 h) [%] | Granulicatella, share of biofilm composition ([2]; 48 h) [%] | Haemophilus, share of biofilm composition ([2]; 48 h) [%] | Megasphaera, share of biofilm composition ([2]; 48 h) [%] | Neisseria, share of biofilm composition ([2]; 48 h) [%] | Other taxa, share of biofilm composition ([2]; 48 h) [%] | Porphyromonas, share of biofilm composition ([2]; 48 h) [%] | Prevotella, share of biofilm composition ([2]; 48 h) [%] | Rothia, share of biofilm composition ([2]; 48 h) [%] | Solobacterium, share of biofilm composition ([2]; 48 h) [%] | Streptococcus, share of biofilm composition ([2]; 48 h) [%] | Unclass. Pasteurellaceae, share of biofilm composition ([2]; 48 h) [%] | Veillonella, share of biofilm composition ([2]; 48 h) [%] | Actinobacillus, share of biofilm composition ([2]; 96 h) [%] | Actinomyces, share of biofilm composition ([2]; 96 h) [%] | other results
1 | O=C1OCC(Br)=C1Br [3,4-Di-bromo, 3,4-Dibromo-2(5H)-furanone] | slightly effect | absent or even inversed | 3.7 | 0.0 | 0.2 | 0.0 | 0.1 | 0.0 | 0.0 | 0.0 | 0.1 | 0.0 | 0.0 | 0.0 | 0.1 | 60.8 | 0.2 | 34.8 | 3.4 | 0.1 | Campylobacter, share of biofilm composition ([2]; 96 h): 1.6%; Fusobacterium, share of biofilm composition ([2]; 96 h): 0.0%; Granulicatella, share of biofilm composition ([2]; 96 h): 0.2%; Haemophilus, share of biofilm composition ([2]; 96 h): 0.0%; Megasphaera, share of biofilm composition ([2]; 96 h): 0.0%; Neisseria, share of biofilm composition ([2]; 96 h): 0.0%; Other taxa, share of biofilm composition ([2]; 96 h): 0.7%; Porphyromonas, share of biofilm composition ([2]; 96 h): 0.0%; Prevotella, share of biofilm composition ([2]; 96 h): 2.3%; Rothia, share of biofilm composition ([2]; 96 h): 0.0%; Solobacterium, share of biofilm composition ([2]; 96 h): 0.7%; Streptococcus, share of biofilm composition ([2]; 96 h): 38.0%; Unclass. Pasteurellaceae, share of biofilm composition ([2]; 96 h): 0.0%; Veillonella, share of biofilm composition ([2]; 96 h): 52.9%; reduction of lactate production [3]: not observed; lactic acid production after 96 h of growth [3]: up-regulate
2 | CCCCCCCCCCCC(=O)N[C@H]1CCOC1=O [C12-HSL, N-[(3S)-tetrahydro-2-oxo-3-furanyl]-dodecanamide] |  |  |  |  |  |  |  |  |  |  |  |  |  |  |  |  |  |  |  |  | total lactic acid production per biofilm (FIG. 2) [3]: no effect
3 | O=C1C=C(Br)/C(=C/Br)O1 [Furanone C30, (Z-)-4-Bromo-5-(bromomethylene)-2(5H)-furanone] | slightly effect | absent or even inversed | 4.9 | 0.1 | 0.0 | 0.0 | 0.0 | 0.0 | 0.0 | 0.0 | 0.0 | 0.0 | 0.0 | 0.0 | 0.1 | 66.2 | 0.0 | 28.6 | 4.5 | 0.3 | Campylobacter, share of biofilm composition ([2]; 96 h): 0.0%; Fusobacterium, share of biofilm composition ([2]; 96 h): 0.0%; Granulicatella, share of biofilm composition ([2]; 96 h): 0.3%; Haemophilus, share of biofilm composition ([2]; 96 h): 0.0%; Megasphaera, share of biofilm composition ([2]; 96 h): 0.0%; Neisseria, share of biofilm composition ([2]; 96 h): 0.0%; Other taxa, share of biofilm composition ([2]; 96 h): 0.1%; Porphyromonas, share of biofilm composition ([2]; 96 h): 0.0%; Prevotella, share of biofilm composition ([2]; 96 h): 0.0%; Rothia, share of biofilm composition ([2]; 96 h): 0.0%; Solobacterium, share of biofilm composition ([2]; 96 h): 0.8%; Streptococcus, share of biofilm composition ([2]; 96 h): 34.4%; Unclass. Pasteurellaceae, share of biofilm composition ([2]; 96 h): 0.0%; Veillonella, share of biofilm composition ([2]; 96 h): 59.6%; reduction of lactate production [3]: not observed; lactic acid production after 96 h of growth [3]: up-regulate
4 | CCCCCCCCCCCCCC(=O)N[C@H]1CCOC1=O [HSL-C14] |  |  |  |  |  |  |  |  |  |  |  |  |  |  |  |  |  |  |  |  | biofilm production (visible amount of biofilm) ([1]; Example 2, 100 μM, 48 h): toxic to the formation of biofilm; total lactic acid production per biofilm (FIG. 2) [3]: reduced lactic acid production
